Measurements reported in patent EP4803081A2.
Read-outs that look alike come from different tables or passages of the source.

Conditions: ester bond

Compound `CO[C@@H](C)c1ncc(N2CCN3CCCC[C@@H]3C2)cc1-c1c2c3cc(ccc3n1CC(F)(F)F)-c1cccc(c1)C[C@H](NC(=O)OC(C)(C)C)C(=O)N1CCC[C@H](N1)C(=O)OCC(C)(C)C2` has a ring closure, yield of all isomers (from CO[C@@H](C)c1ncc(N2CCN3CCCC[C@@H]3C2)cc1-c1c(CC(C)(C)CO)c2cc(-c3cccc(C[C@H](NC(=O)OC(C)(C)C)C(=O)N4CCC[C@@H](C(=O)O)N4)c3)ccc2n1CC(F)(F)F, EDCI/HOBt/DIPEA, DCM, 12.85 mM, 0.0 °C, 16.0 h) of 65%.

Compound `CCn1c(-c2cc(N3CCN4CCCC[C@@H]4C3)cnc2[C@H](C)OC)c2c3cc(ccc31)C1=CCCN(C1)C[C@H](NC(=O)OC(C)(C)C)C(=O)N1CCC[C@H](N1)C(=O)OCC(C)(C)C2` has a ring closure, yield of all isomers (from CCn1c(-c2cc(N3CCN4CCCC[C@@H]4C3)cnc2[C@H](C)OC)c(CC(C)(C)CO)c2cc(C3=CCCN(C[C@H](NC(=O)OC(C)(C)C)C(=O)N4CCC[C@@H](C(=O)O)N4)C3)ccc21, EDC•HCl/HOBt/DIPEA, DCM, 11.3 mM, 0.0 °C, 16.0 h) of 66%.

`CO[C@@H](C)c1ncc(N2CCN3CCOC[C@@H]3C2)cc1-c1c2c3cc(ccc3n1CC(F)(F)F)-c1cccc(c1)C[C@H](NC(=O)OC(C)(C)C)C(=O)N1CCC[C@H](N1)C(=O)OCC(C)(C)C2` showed a ring closure, yield of all isomers (from CO[C@@H](C)c1ncc(N2CCN3CCOC[C@@H]3C2)cc1-c1c(CC(C)(C)CO)c2cc(-c3cccc(C[C@H](NC(=O)OC(C)(C)C)C(=O)N4CCC[C@@H](C(=O)O)N4)c3)ccc2n1CC(F)(F)F, EDCI/HOBt/DIPEA, DCM, 5.34 mM, 25.0 °C, 16.0 h) of 98%.

In the case of `CO[C@@H](C)c1ncc(N2CCN(C3CC3)CC2)cc1-c1c2c3cc(ccc3n1CC(F)(F)F)-c1cccc(c1)C[C@H](NC(=O)OC(C)(C)C)C(=O)N1CCC[C@H](N1)C(=O)OCC(C)(C)C2`, the ring closure, yield of all isomers (from CO[C@@H](C)c1ncc(N2CCN(C3CC3)CC2)cc1-c1c(CC(C)(C)CO)c2cc(-c3cccc(C[C@H](NC(=O)OC(C)(C)C)C(=O)N4CCC[C@@H](C(=O)O)N4)c3)ccc2n1CC(F)(F)F, EDCI/HOBt/DIPEA, DCM, 108.7 mM, 25.0 °C, 16.0 h) was 79%.

With `CC1(C)COC(=O)[C@@H]2CCCN(N2)C(=O)[C@@H](NC(=O)OC(C)(C)C)Cc2cccc(c2)-c2ccc3[nH]c(I)c(c3c2)C1` the ring closure, yield of all isomers (from CC(C)(CO)Cc1c(I)[nH]c2ccc(-c3cccc(C[C@H](NC(=O)OC(C)(C)C)C(=O)N4CCC[C@@H](C(=O)O)N4)c3)cc12, EDCI/HOBt/DIPEA, DCM, 12.77 mM, 0.0 °C, 16.0 h) was 79.8%.

With `CCn1c(-c2cccnc2[C@H](C)OC)c2c3cc(ccc31)-c1csc(n1)C[C@H](NC(=O)OC(C)(C)C)C(=O)N1CCC[C@H](N1)C(=O)OCC(C)(C)C2` the ring closure, yield of all isomers (from CCn1c(-c2cccnc2[C@H](C)OC)c(CC(C)(C)CO)c2cc(-c3csc(C[C@H](NC(=O)OC(C)(C)C)C(=O)N4CCC[C@@H](C(=O)O)N4)n3)ccc21, EDCI/HOBt/DIPEA, DCM, 12.65 mM, 25.0 °C, 16.0 h) was 81%.

Compound `CCn1c(-c2cc(N3CCN(C4CC4)CC3)cnc2[C@H](C)OC)c2c3cc(ccc31)N1CCO[C@@H](C[C@H](NC(=O)OCc3ccccc3)C(=O)N3CCC[C@H](N3)C(=O)OCC(C)(C)C2)C1` has a ring closure, yield of all isomers (from CCn1c(-c2cc(N3CCN(C4CC4)CC3)cnc2[C@H](C)OC)c(CC(C)(C)CO)c2cc(N3CCO[C@@H](C[C@H](NC(=O)OCc4ccccc4)C(=O)N4CCC[C@@H](C(=O)O)N4)C3)ccc21, EDCI/HOBt/DIPEA, DCM, 11.25 mM, 30.0 °C, 16.0 h) of 50%.

`CCn1c(-c2cccnc2[C@H](C)OC)c2c3cc(ccc31)N1CCO[C@@H](C[C@H](NC(=O)OCc3ccccc3)C(=O)N3CCC[C@H](N3)C(=O)OCC(C)(C)C2)C1` gave a ring closure, yield of all isomers (from CCn1c(-c2cccnc2[C@H](C)OC)c(CC(C)(C)CO)c2cc(N3CCO[C@@H](C[C@H](NC(=O)OCc4ccccc4)C(=O)N4CCC[C@@H](C(=O)O)N4)C3)ccc21, EDCI/HOBt/DIPEA, DCM, 12.75 mM, 25.0 °C, 16.0 h) of 66%.

`CCn1c(-c2cc(N3CCN(C(=O)OCc4ccccc4)CC3)cnc2[C@H](C)OC)c2c3cc(ccc31)-c1csc(n1)C[C@H](NC(=O)OC(C)(C)C)C(=O)N1CCC[C@H](N1)C(=O)OCC(C)(C)C2` gave a ring closure, yield of all isomers (from CCn1c(-c2cc(N3CCN(C(=O)OCc4ccccc4)CC3)cnc2[C@H](C)OC)c(CC(C)(C)CO)c2cc(-c3csc(C[C@H](NC(=O)OC(C)(C)C)C(=O)N4CCC[C@@H](C(=O)O)N4)n3)ccc21, EDCI/HOBt/DIPEA, MeCN, 10.34 mM, 25.0 °C, 16.0 h) of 55%.

`CCn1c(-c2cc(N3CCN4CCOC[C@@H]4C3)cnc2[C@H](C)OC)c2c3cc(ccc31)C1=CCCN(C1)C[C@H](NC(=O)OC(C)(C)C)C(=O)N1CCC[C@H](N1)C(=O)OCC(C)(C)C2` showed a ring closure, yield of all isomers (from CCn1c(-c2cc(N3CCN4CCOC[C@@H]4C3)cnc2[C@H](C)OC)c(CC(C)(C)CO)c2cc(C3=CCCN(C[C@H](NC(=O)OC(C)(C)C)C(=O)N4CCC[C@@H](C(=O)O)N4)C3)ccc21, EDC·HCl/HOBt/DIPEA, DCM, 11.3 mM, 0.0 °C, 2.0 h) of 67%.

In the case of `CCn1c(-c2cc(N3CCN4CCCC[C@@H]4C3)cnc2[C@H](C)OC)c2c3cc(ccc31)-c1csc(n1)C[C@H](NC(=O)OC(C)(C)C)C(=O)N1CCC[C@H](N1)C(=O)OCC(C)(C)C2`, the ring closure, yield of all isomers (from CCn1c(-c2cc(N3CCN4CCCC[C@@H]4C3)cnc2[C@H](C)OC)c(CC(C)(C)CO)c2cc(-c3csc(C[C@H](NC(=O)OC(C)(C)C)C(=O)N4CCC[C@@H](C(=O)O)N4)n3)ccc21, EDCI/HOBt/DIPEA, DCM, 11.3 mM, 25.0 °C, 16.0 h) was 49%.

In the case of `CCn1c(-c2cccnc2[C@H](C)OC)c2c3cc(ccc31)C1=CCCN(C1)CC(NC(=O)OC(C)(C)C)C(=O)N1CCC[C@H](N1)C(=O)OCC(C)(C)C2` (some centres unmarked), the ring closure, yield of all isomers (from CCn1c(-c2cccnc2[C@H](C)OC)c(CC(C)(C)CO)c2cc(C3=CCCN(CC(NC(=O)OC(C)(C)C)C(=O)N4CCC[C@@H](C(=O)O)N4)C3)ccc21, EDCI/HOBt/DIPEA, DCM, 7.14 mM, 30.0 °C, 16.0 h) was 40%.

Compound `CO[C@@H](C)c1ncc(N2CCN(C3CC3)CC2)cc1-c1c2c3cc(ccc3n1CC(F)(F)F)N1CCO[C@@H](C[C@H](NC(=O)OC(C)(C)C)C(=O)N3CCC[C@H](N3)C(=O)OCC(C)(C)C2)C1` has a ring closure, yield of all isomers (from CO[C@@H](C)c1ncc(N2CCN(C3CC3)CC2)cc1-c1c(CC(C)(C)CO)c2cc(N3CCO[C@@H](C[C@H](NC(=O)OC(C)(C)C)C(=O)N4CCC[C@@H](C(=O)O)N4)C3)ccc2n1CC(F)(F)F, EDCI/HOBt/DIPEA, DCM, 9.22 mM, 25.0 °C, 16.0 h) of 64%.

`CCn1c(-c2cc(N3CCN4CCOC[C@@H]4C3)cnc2[C@H](C)OC)c2c3cc(ccc31)-c1cccc(c1)C[C@H](NC(=O)OC(C)(C)C)C(=O)N1CCC[C@H](N1)C(=O)OCC(C)(C)C2` gave a ring closure, yield of all isomers (from CCn1c(-c2cc(N3CCN4CCOC[C@@H]4C3)cnc2[C@H](C)OC)c(CC(C)(C)CO)c2cc(-c3cccc(C[C@H](NC(=O)OC(C)(C)C)C(=O)N4CCC[C@@H](C(=O)O)N4)c3)ccc21, EDCI/HOBt/DIPEA, DCM, 7.56 mM, 25.0 °C, 16.0 h) of 81%.

Compound `CCn1c(-c2cc(N3CCN4CCC[C@@H]4C3)cnc2[C@H](C)OC)c2c3cc(ccc31)-c1cccc(c1)C[C@H](NC(=O)OC(C)(C)C)C(=O)N1CCC[C@H](N1)C(=O)OCC(C)(C)C2` has a ring closure, yield of all isomers (from CCn1c(-c2cc(N3CCN4CCC[C@@H]4C3)cnc2[C@H](C)OC)c(CC(C)(C)CO)c2cc(-c3cccc(C[C@H](NC(=O)OC(C)(C)C)C(=O)N4CCC[C@@H](C(=O)O)N4)c3)ccc21, EDCI/HOBt/DIPEA, DCM, 16.7 mM, 25.0 °C, 16.0 h) of 42%.

`CCn1c(-c2cc(N3CCN4CCCC[C@@H]4C3)cnc2[C@H](C)OC)c2c3cc(ccc31)-c1cccc(c1)C[C@H](NC(=O)OC(C)(C)C)C(=O)N1CCC[C@H](N1)C(=O)OCC(C)(C)C2` showed a ring closure, yield of all isomers (from CCn1c(-c2cc(N3CCN4CCCC[C@@H]4C3)cnc2[C@H](C)OC)c(CC(C)(C)CO)c2cc(-c3cccc(C[C@H](NC(=O)OC(C)(C)C)C(=O)N4CCC[C@@H](C(=O)O)N4)c3)ccc21, EDCI/HOBt/DIPEA, DCM, 5.81 mM, 25.0 °C, 16.0 h) of 34%.

`CCn1c(-c2cc(N3CCN(C4CC4)CC3)cnc2[C@H](C)OC)c2c3cc(ccc31)C1=CCCN(C1)C[C@H](NC(=O)OC(C)(C)C)C(=O)N1CCC[C@H](N1)C(=O)OCC(C)(C)C2` gave a ring closure, yield of all isomers (from CCn1c(-c2cc(N3CCN(C4CC4)CC3)cnc2[C@H](C)OC)c(CC(C)(C)CO)c2cc(C3=CCCN(C[C@H](NC(=O)OC(C)(C)C)C(=O)N4CCC[C@@H](C(=O)O)N4)C3)ccc21, EDCI/HOBt/DIPEA, DCM, 10.0 mM, 35.0 °C, 16.0 h) of 53%.

With `CCn1c(-c2cc(N3CCN4CCOC[C@@H]4C3)cnc2[C@H](C)OC)c2c3cc(ccc31)-c1csc(n1)C[C@H](NC(=O)OC(C)(C)C)C(=O)N1CCC[C@H](N1)C(=O)OCC(C)(C)C2` the ring closure, yield of all isomers (from CCn1c(-c2cc(N3CCN4CCOC[C@@H]4C3)cnc2[C@H](C)OC)c(CC(C)(C)CO)c2cc(-c3csc(C[C@H](NC(=O)OC(C)(C)C)C(=O)N4CCC[C@@H](C(=O)O)N4)n3)ccc21, EDCI/HOBt/DIPEA, DCM, 11.3 mM, 25.0 °C, 16.0 h) was 52%.

Compound `CCn1c(-c2cc(N3CCN4CCCC[C@@H]4C3)cnc2[C@H](C)OC)c2c3cc(ccc31)N1CCO[C@@H](C[C@H](NC(=O)OC(C)(C)C)C(=O)N3CCC[C@H](N3)C(=O)OCC(C)(C)C2)C1` has a ring closure, yield of all isomers (from CCn1c(-c2cc(N3CCN4CCCC[C@@H]4C3)cnc2[C@H](C)OC)c(CC(C)(C)CO)c2cc(N3CCO[C@@H](C[C@H](NC(=O)OC(C)(C)C)C(=O)N4CCC[C@@H](C(=O)O)N4)C3)ccc21, EDCI/HOBt/DIPEA, DMF, 11.2 mM, 25.0 °C, 16.0 h) of 73%.

For `CO[C@@H](C)c1ncc(N2CCN(C3CC3)CC2)cc1-c1c2c3cc(ccc3n1CC(F)(F)F)-c1csc(n1)C[C@H](NC(=O)OC(C)(C)C)C(=O)N1CCC[C@H](N1)C(=O)OCC(C)(C)C2`, the ring closure, yield of all isomers (from CO[C@@H](C)c1ncc(N2CCN(C3CC3)CC2)cc1-c1c(CC(C)(C)CO)c2cc(-c3csc(C[C@H](NC(=O)OC(C)(C)C)C(=O)N4CCC[C@@H](C(=O)O)N4)n3)ccc2n1CC(F)(F)F, EDCI/HOBt/DIPEA, DCM, 21.07 mM, 25.0 °C, 16.0 h) was 51%.
